Experiments:
H1975 cells = test: VEGF secretion ELISA assay, H1975 cells; format: cell-based, human; conditions: H1975 expressing ZD6474 resistance mutation of VEGFR2; in vitro
Procedure: Cells were either treated with the indicated compounds or DMSO alone. After 4 hours cells were stimulated with 40 ng/ml of VEGF165, or incubated in medium containing DMSO only. Cells were then washed twice with PBS and supplemented with serum-free medium and allowed to secrete VEGF for 48 hours. Secretion of VEGF into cell culture supernatants was measured by Human VEGF Quantikine Kit (R&D Systems) according to manufacturer's instructions.

H1975 = test system: H1975
Procedure: (§1) All animal procedures were approved by the local animal protection committee and the local authorities. H1975, H441 and H1650 cells (5x10^6 cells) were injected subcutaneously into male nude mice. […] Mice were treated daily by oral gavage of ZD6474 (50 mg/kg, solved in vehicle), PD0325901 (12mg/kg, dissolved in propylene glycol:water (1:1)), the combination of ZD6474 (50 mg/kg) and PD0325901 (12mg/kg) or vehicle detergent alone. Tumor size of tumors expressing high levels of VEGFR2 (H441, H1975) and tumor with low expression of VEGFR2 (H1650) were monitored measuring perpendicular diameters.
(§2) All animal procedures were approved by the local animal protection committee and the local authorities. High VEGFR2 expressing tumor cell H1975 and H441 (5x10^6 cells), and very low VEGFR2 expressing cells H1650 (5x10^6 cells) were injected subcutaneously into male nude mice. […] Mice were treated daily by oral gavage of ZD6474 (50 mg/kg, solved in vehicle), PD0325901 (12mg/kg, dissolved in propylene glycol:water (1:1)), the combination of ZD6474 (50 mg/kg) and PD0325901 (12mg/kg) or vehicle detergent alone. Tumor size of tumors expressing high levels of VEGFR2 (H441, H1975) and tumor with low expression of VEGFR2 (H1650) were monitored during treatment measuring perpendicular diameters.

H441 = conditions: H441, high VEGFR2; daily oral gavage ZD6474 50 mg/kg, PD0325901 12mg/kg; start at about 50mm^3; Fig. 10
Procedure: as §1, §2

H1650 = conditions: H1650, very low VEGFR2; daily oral gavage ZD6474 50 mg/kg, PD0325901 12mg/kg; start at about 50mm^3; Fig. 10
Procedure: as §1, §2

Structure (SMILES)	ZD6474-mediated inhibition of VEGF secretion (H1975 cells)	tumor-growth inhibiting effects of the compound (H1975; H1975 expressing ZD6474 resistance mutation of VEGFR2, in vivo, Fig. 1e)	tumor volume (H441)	tumor volume (H1650)	tumor volume (H1975; H1975, high VEGFR2, daily oral gavage ZD6474 50 mg/kg, PD0325901 12mg/kg, start at about 50mm^3, Fig. 10)
COc1cc2c(Nc3ccc(Br)cc3F)ncnc2cc1OCC1CCN(C)CC1 [Vandetanib, N-(4-bromo-2-fluorophenyl)-6-methoxy-7-[(1-methylpiperidin-4-yl)methoxy]quinazolin-4-amine]	abolished	suppressed			
O=C(NOC[C@H](O)CO)c1ccc(F)c(F)c1Nc1ccc(I)cc1F [PD0325901, N-[(2R)-2,3-dihydroxypropoxy]-3,4-difluoro-2-[(2-fluoro-4-iodophenyl)amino]-benzamide]			did not reduce the tumor volume	increased alike	did not reduce the tumor volume
